Results on 10 compounds are retold here after US7470684B2, “Spiropiperidine derivatives as NK3 antagonists” (Hoffmann-La Roche Inc., priority 2007, dated 2008).

SMILES strings stand for the structures.

This assay has as its target T1, human NK3 receptor (Homo sapiens, UniProt P29371).
T1 construct: expressed in transfected cells; host or cells: HEK293 cells, transiently transfected; membranes
T1 sequence (P29371 1-465): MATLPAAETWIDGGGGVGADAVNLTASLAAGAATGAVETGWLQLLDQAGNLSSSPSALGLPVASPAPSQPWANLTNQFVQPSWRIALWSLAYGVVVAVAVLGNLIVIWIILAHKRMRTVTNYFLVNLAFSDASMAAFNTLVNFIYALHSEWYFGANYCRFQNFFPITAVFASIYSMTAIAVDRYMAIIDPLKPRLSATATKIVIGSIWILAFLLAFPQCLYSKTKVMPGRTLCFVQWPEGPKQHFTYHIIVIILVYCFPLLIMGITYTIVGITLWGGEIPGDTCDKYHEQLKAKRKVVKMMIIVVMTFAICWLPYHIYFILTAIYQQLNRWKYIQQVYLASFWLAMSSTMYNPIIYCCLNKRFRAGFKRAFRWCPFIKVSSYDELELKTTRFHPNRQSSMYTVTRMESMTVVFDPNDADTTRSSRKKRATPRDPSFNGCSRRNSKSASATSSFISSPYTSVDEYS
The experiment in a line: [3H]SR142801 competition binding assay. The note with it: hNK3 Ki, [3H]SR142801 displacement, membranes of HEK293 cells transiently expressing recombinant human NK3 receptor. In outline: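 Membranes from HEK293 cells transiently expressing human NK3 receptor incubated 75 min at RT with [3H]SR142801 at its KD and compound (0.0003-10 μM) in pH 7.4 Tris/MnCl2 buffer. Filtration and scintillation counting, nonspecific binding with 10 μM SB222200. IC50 from Hill fit, Ki by Cheng-Prusoff, duplicates.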

A word on the Ki: it is the equilibrium dissociation constant of an inhibitor or competing ligand from its target. With `CN(Cc1ccccc1Cl)C(=O)C(CCN1CCC2(CC1)OC(=O)N(C)c1ccc(F)cc12)c1ccc(Cl)c(Cl)c1` (stereo not shown) [Example 44, N-(2-chlorobenzyl)-2-(3,4-dichlorophenyl)-4-(6-fluoro-1-methyl-2-oxo-1,2-dihydro-1′H-spiro[3,1-benzoxazine-4,4′-piperidin]-1′-yl)-N-methylbutanamide], the Ki turned out to be 0.0016 µM. For the compound `O=C1Nc2ccc(F)cc2C2(CCN(CCCC(C(=O)NCc3ccc(Cl)cc3)c3ccc(Cl)c(Cl)c3)CC2)O1` (stereo not shown) [Example 125, N-(4-chlorobenzyl)-2-(3,4-dichlorophenyl)-5-(6-fluoro-2-oxo-1,2-dihydro-1′H-spiro[3,1-benzoxazine-4,4′-piperidin]-1′-yl)pentanamide], the Ki is 0.0983 µM. For `COc1ccc(CN(C)C(=O)C(CCN2CCC3(CC2)OC(=O)N(C)c2ccc(F)cc23)c2ccc(Cl)c(Cl)c2)cc1F` (stereo not shown) [Example 99, 2-(3,4-dichlorophenyl)-N-(3-fluoro-4-methoxybenzyl)-4-(6-fluoro-1-methyl-2-oxo-1,2-dihydro-1′H-spiro[3,1-benzoxazine-4,4′-piperidin]-1′-yl)-N-methyl-butanamide] the value was 0.0024 µM; for `Cc1ccc(CN(C)C(=O)C(CCN2CCC3(CC2)OC(=O)Nc2ccc(F)cc23)c2ccc(F)cc2)cc1` (stereo not shown) [Example 56, 4-(6-fluoro-2-oxo-1,2-dihydro-1′H-spiro[3,1-benzoxazine-4,4′-piperidin]-1′-yl)-2-(4-fluorophenyl)-N-methyl-N-(4-methylbenzyl)butanamide], 0.0664 µM. For the compound `O=C1Nc2ccc(F)cc2C2(CCN(CCC(C(=O)NCc3ccc(-c4csnn4)cc3)c3ccc(Cl)c(Cl)c3)CC2)O1` (stereo not shown) [Example 84, 2-(3,4-dichlorophenyl)-4-(6-fluoro-2-oxo-1,2-dihydro-1′H-spiro[3,1-benzoxazine-4,4′-piperidin]-1′-yl)-N-[4-(1,2,3-thiadiazol-4-yl)benzyl]butanamide], the Ki came out at 0.0116 µM. Regarding `CN1C(=O)OC2(CCN(CCC(C(=O)NCc3ccc(Cl)cc3Cl)c3ccc(Cl)c(Cl)c3)CC2)c2cc(F)ccc21` (stereo not shown) [Example 87, N-(2,4-dichlorobenzyl)-2-(3,4-dichlorophenyl)-4-(6-fluoro-1-methyl-2-oxo-1,2-dihydro-1′H-spiro[3,1-benzoxazine-4,4′-piperidin]-1′-yl)butanamide], the Ki was found to be 0.0021 µM.

`O=C1Nc2ccc(F)cc2C2(CCN(CCC(C(=O)NCc3cccc(C(F)(F)F)c3)c3ccc(Cl)c(Cl)c3)CC2)O1` (stereo not shown) [Example 83, 2-(3,4-dichlorophenyl)-4-(6-fluoro-2-oxo-1,2-dihydro-1′H-spiro[3,1-benzoxazine-4,4′-piperidin]-1′-yl)-N-[3-(trifluoromethyl)benzyl]butanamide]: the Ki stood at 0.0129 µM. As for `CCN(Cc1ccc(C)cc1)C(=O)C(CCN1CCC2(CC1)OC(=O)Nc1ccc(F)cc12)c1ccc(Cl)c(Cl)c1` (stereo not shown) [Example 18, 2-(3,4-dichlorophenyl)-N-ethyl-4-(6-fluoro-2-oxo-1,2-dihydro-1′H-spiro[3,1-benzoxazine-4,4′-piperidin]-1′-yl)-N-(4-methylbenzyl)butnamide], the figure is 0.0157 µM. Consider `Cc1ccc(CN(C)C(=O)C(CCCN2CCC3(CC2)OC(=O)Nc2ccc(F)cc23)c2ccc(Cl)c(Cl)c2)cc1` (stereo not shown) [Example 138, 2-(3,4-dichlorophenyl)-5-(6-fluoro-2-oxo-1,2-dihydro-1′H-spiro[3,1-benzoxazine-4,4′-piperidin]-1′-yl)-N-methyl-N-(4-methylbenzyl)pentanamide], for which the Ki came to 0.0954 µM.

Regarding `N#Cc1ccc(CNC(=O)C(CCN2CCC3(CC2)OC(=O)Nc2ccc(F)cc23)c2ccc(Cl)c(Cl)c2)cc1` (stereo not shown) [Example 86, N-(4-cyanobenzyl)-2-(3,4-dichlorophenyl)-4-(6-fluoro-2-oxo-1,2-dihydro-1′H-spiro[3,1-benzoxazine-4,4′-piperidin]-1′-yl)butanamide], the Ki is 0.0121 µM.
